Results published in ChEMBL document CHEMBL5226286, “The application of isatin-based multicomponent-reactions in the quest for new bioactive and druglike molecules” (Eur J Med Chem, 2021).
Values after ≈ are worked out from the molar mass of the structure shown. Active and inactive are the calls of the source. The calls are words filed in the database; no cut-off is given here.

Experiments:
[1] = system: Aspergillus niger; assay: Antifungal activity against Aspergillus niger; assay type: functional
[2] = system: Aspergillus flavus; assay: Antifungal activity against Aspergillus flavus; assay type: functional
[3] = Antioxidant activity assessed as DPPH radical scavenging activity at 1 mg/ml relative to control; assay type: functional
[4] = system: Staphylococcus aureus; assay: Antibacterial activity against Staphylococcus aureus by disc diffusion method; assay type: functional
[5] = system: Bacillus subtilis; assay: Antibacterial activity against Bacillus subtilis by disc diffusion method; assay type: functional
[6] = system: Escherichia coli; assay: Antibacterial activity against Escherichia coli by disc diffusion method; assay type: functional
[7] = system: Pseudomonas aeruginosa; assay: Antibacterial activity against Pseudomonas aeruginosa by disc diffusion method; assay type: functional
[8] = system: Mycobacterium tuberculosis; assay: Antimycobacterial activity against active stage of Mycobacterium tuberculosis H37Ra ATCC 25177 assessed as minimum inhibitory concentration by XTT assay; assay type: functional
[9] = system: Mycobacterium tuberculosis; assay: Antimycobacterial activity against dormant stage of Mycobacterium tuberculosis H37Ra ATCC 25177 assessed as minimum inhibitory concentration by XTT assay; assay type: functional
[10] = system: Escherichia coli; assay: Antibacterial activity against Escherichia coli NCIM 2688 measured after 8 hrs; assay type: functional
[11] = system: Pseudomonas aeruginosa; assay: Antibacterial activity against Pseudomonas aeruginosa NCIM […] measured after 8 hrs; assay type: functional
[12] = system: Bacillus subtilis; assay: Antibacterial activity against Bacillus subtilis NCIM 2079 measured after 12 hrs; assay type: functional
[13] = system: Staphylococcus aureus; assay: Antibacterial activity against Staphylococcus aureus NCIM 2010 measured after 12 hrs; assay type: functional
[14] = system: HepG2; assay: cells; assay type: functional, cell-based; conditions: Homo sapiens
Description: Antiproliferative activity against human HepG2 cells

[15] = system: A549; assay: Cytotoxicity against human A549 cells incubated for 48 hrs by MTT assay; assay type: functional, cell-based; conditions: A549, 48 h
[16] = system: HeLa; assay: Cytotoxicity against human HeLa cells incubated for 48 hrs by MTT assay; assay type: functional, cell-based
[17] = system: MCF7; assay: Cytotoxicity against human MCF7 cells incubated for 48 hrs by MTT assay; assay type: functional, cell-based; conditions: MCF7, 48 h
[18] = system: DU-145; assay: Cytotoxicity against human DU-145 cells incubated for 48 hrs by MTT assay; assay type: functional, cell-based; conditions: DU-145, 48 h
[19] = system: A549; assay: Antiproliferative activity against human A549 cells; assay type: functional, cell-based
[20] = system: MCF7; assay: Cytotoxicity against human MCF7 cells; assay type: functional, cell-based
[21] = system: MDA-MB-231; assay: cells; assay type: functional, cell-based; conditions: Homo sapiens
Description: Antiproliferative activity against human MDA-MB-231 cells

[22] = system: HeLa; assay: Antiproliferative activity against human HeLa cells; assay type: functional, cell-based
[23] = system: Streptococcus pneumoniae; assay: Antibacterial activity against Streptococcus pneumoniae incubated for 24 to 48 hrs by agar diffusion well method; assay type: functional; conditions: time 24-48 hrs
[24] = system: Bacillus subtilis; assay: Antibacterial activity against Bacillus subtilis incubated for 24 to 48 hrs by agar diffusion well method; assay type: functional; conditions: time 24-48 hrs
[25] = system: Pseudomonas aeruginosa; assay: Antibacterial activity against Pseudomonas aeruginosa incubated for 24 to 48 hrs by agar diffusion well method; assay type: functional; conditions: time 24-48 hrs
[26] = system: Escherichia coli; assay: Antibacterial activity against Escherichia coli incubated for 24 to 48 hrs by agar diffusion well method; assay type: functional; conditions: time 24-48 hrs
[27] = system: Aspergillus fumigatus; assay: Antifungal activity against Aspergillus fumigatus RCMB 02568; assay type: functional
[28] = system: Syncephalastrum racemosum; assay: Antifungal activity against Syncephalastrum racemosum RCMB 05922; assay type: functional
[29] = system: Geotrichum candidum; assay: Antifungal activity against Geotrichum candidum RCMB 05097; assay type: functional
[30] = system: Candida albicans; assay: Antifungal activity against Candida albicans RCMB 05036; assay type: functional

Which MIC [1] does the source give for CC(C)CC1NC2(C(=O)Nc3ccccc32)C(C(=O)c2ccc(F)cc2)C1c1ccc(Br)cc1 (stereo not given) here?
Its MIC is 30 µg/mL (≈ 57.5 µM).

What about the MIC [2] of the same compound?
Its MIC is 20 µg/mL (≈ 38.4 µM).

Which results are given for O=C(c1ccc(F)cc1)C1C(c2ccc(Cl)cc2)C(CO)NC12C(=O)Nc1ccccc12 (stereo not given)?
MIC [1]: 20 µg/mL (≈ 44.4 µM); MIC [2]: 20 µg/mL (≈ 44.4 µM); Activity [3]: 88.1%

Which MIC [4] does the source give for CC1(C)CC(=O)C2=C(C1)N(c1ccccc1S)C(=O)C21C2=C(Nc3ccccc31)C(=O)CC(C)(C)C2 (stereo not given) here?
Its MIC is 225 µg/mL (≈ 451 µM).

And the MIC [5]?
Its MIC is 2.5 µg/mL (≈ 5.01 µM).

And the MIC [6]?
The MIC was 188 µg/mL (≈ 376 µM).

What about the MIC [7] of the same compound?
The MIC was 150 µg/mL (≈ 301 µM).

What does the source list for CC1(C)CC(=O)C2=C(C1)OC(N)=C(C#N)C21C(=O)N(Cc2cn(Cc3ccc(Cl)cc3)nn2)c2ccc(Br)cc21 (stereo not given)?
MIC [8]: > 50 µg/mL; MIC [9]: 10.6 µg/mL (≈ 17.1 µM); MIC90 [10]: 2.86 µg/mL (≈ 4.61 µM); MIC90 [11]: 1.57 µg/mL (≈ 2.53 µM); MIC90 [12]: 3.18 µg/mL (≈ 5.13 µM); MIC90 [13]: 1.09 µg/mL (≈ 1.76 µM)

Which IC50 [14] does the source give for Cc1coc2c1C(=O)C(=O)c1c-2ccc2c1CCCC2(C)C [TANSHINONE IIA] here?
The IC50 was 23.9 µM.

For Cc1ccc(Cn2cc(CN3C(=O)C4(C(C#N)=C(N)Oc5cc(C)oc(=O)c54)c4ccccc43)nn2)cc1 (stereo not given), which MIC [8] is on record?
Its MIC is 14 µg/mL (≈ 27.6 µM).

And the MIC [9]?
The MIC was 7.3 µg/mL (≈ 14.4 µM).

And the MIC90 [10]?
Its MIC90 is 1.97 µg/mL (≈ 3.89 µM).

And the MIC90 [11]?
The MIC90 was 3.08 µg/mL (≈ 6.08 µM).

What about the MIC90 [12] of the same compound?
Its MIC90 is 2.85 µg/mL (≈ 5.63 µM).

What about the MIC90 [13] of the same compound?
The MIC90 was 4.27 µg/mL (≈ 8.43 µM).

What does the source list for CC1(C)CC(=O)C2=C(C1)N(c1c(Br)cc(Br)cc1Br)C(=O)C21C2=C(Nc3ccccc31)C(=O)CC(C)(C)C2 (stereo not given)?
MIC [4]: 100 µg/mL (≈ 142 µM); MIC [5]: 62.5 µg/mL (≈ 88.9 µM); MIC [6]: 37.5 µg/mL (≈ 53.3 µM); MIC [7]: 50 µg/mL (≈ 71.1 µM)

What does the source list for O=C1OCC2=C1C1(Nc3ccc(Cl)cc3N2)C(=O)Nc2ccccc21 (stereo not given)?
IC50 [15]: 2.9 µM; IC50 [16]: 5.4 µM; IC50 [17]: 9.5 µM; IC50 [18]: 1.7 µM

For Cc1ccc2c(c1)C1(C(=O)N2)N2CSCC2C(c2ncc[nH]2)C1(C#N)C(=O)c1c[nH]c2ccccc12 (stereo not given), which IC50 [19] is on record?
Its IC50 is 66.3 µM.

For Cc1ccc(Cn2cc(CN3C(=O)C4(C(C#N)=C(N)Oc5cc(C)oc(=O)c54)c4cc(Cl)ccc43)nn2)cc1 (stereo not given), which MIC [8] is on record?
The MIC was over 50 µg/mL.

And the MIC [9]?
The MIC was 11.6 µg/mL (≈ 21.4 µM).

What about the MIC90 [10] of the same compound?
Its MIC90 is 2.65 µg/mL (≈ 4.9 µM).

What about the MIC90 [11] of the same compound?
Its MIC90 is 4.88 µg/mL (≈ 9.02 µM).

What about the MIC90 [12] of the same compound?
The MIC90 was 7.19 µg/mL (≈ 13.3 µM).

And the MIC90 [13]?
Its MIC90 is 2.41 µg/mL (≈ 4.45 µM).

What does the source list for Cc1cc2c(c(=O)o1)C1(C(=O)N(Cc3cn(Cc4ccc(Cl)cc4)nn3)c3ccc(Cl)cc31)C(C#N)=C(N)O2 (stereo not given)?
MIC [8]: 5.39 µg/mL (≈ 9.6 µM); MIC [9]: 4.81 µg/mL (≈ 8.57 µM)

What does the source list for Cc1ccc2c(c1)C1(Nc3ccccc3NC3=C1C(=O)OC3)C(=O)N2 (stereo not given)?
IC50 [15]: 1.5 µM; IC50 [16]: 9.6 µM; IC50 [17]: 2.1 µM; IC50 [18]: 1.3 µM

Which IC50 [20] does the source give for CCOC(=O)C1=C(C(=O)OCC)C2(NC1(C(=O)OCC)C(=O)OCC)C(=O)Nc1ccccc12 (stereo not given) here?
Its IC50 is 28 µM.

Which MIC [8] does the source give for CO[C@H]1/C=C/O[C@@]2(C)Oc3c(C)c(O)c4c(O)c(c(/C=N/N5CCN(C)CC5)c(O)c4c3C2=O)NC(=O)/C(C)=C\C=C\[C@H](C)[C@H](O)[C@@H](C)[C@@H](O)[C@@H](C)[C@H](OC(C)=O)[C@@H]1C [RIFAMPIN] here?
The MIC was 0.51 µg/mL (≈ 0.62 µM).

And the MIC [9]?
Its MIC is 0.75 µg/mL (≈ 0.911 µM).

For N#CC1=C(N)Oc2c(ccc3[nH]c4ccccc4c23)C12C(=O)N(Cc1cn(Cc3ccc(C(F)(F)F)cc3)nn1)c1ccccc12 (stereo not given), which IC50 [21] is on record?
Its IC50 is 61.9 µM.

What about the IC50 [22] of the same compound?
The IC50 was 3.5 µM.

For Cc1cc2c(c(=O)o1)C1(C(=O)N(Cc3cn(Cc4ccc(Cl)cc4)nn3)c3ccccc31)C(C#N)=C(N)O2 (stereo not given), which MIC [8] is on record?
Its MIC is 5.21 µg/mL (≈ 9.89 µM).

What about the MIC [9] of the same compound?
The MIC was 4.39 µg/mL (≈ 8.33 µM).

For NC[C@H]1O[C@H](O[C@H]2[C@H](O)[C@@H](O[C@H]3O[C@H](CO)[C@@H](O)[C@H](N)[C@H]3O)[C@H](N)C[C@@H]2N)[C@H](O)[C@@H](O)[C@@H]1O [KANAMYCIN], which MIC90 [10] is on record?
The MIC90 was 1.62 µg/mL (≈ 3.34 µM).

And the MIC90 [11]?
The MIC90 was 0.49 µg/mL (≈ 1.01 µM).

What about the MIC90 [12] of the same compound?
Its MIC90 is 1.35 µg/mL (≈ 2.79 µM).

And the MIC90 [13]?
The MIC90 was over 30 µg/mL.

What does the source list for CC1(C)CC(=O)C2=C(C1)N(c1ccccn1)C(=O)C21C2=C(Nc3ccccc31)C(=O)CC(C)(C)C2 (stereo not given)?
MIC [4]: 125 µg/mL (≈ 267 µM); MIC [5]: 50 µg/mL (≈ 107 µM); MIC [6]: 62 µg/mL (≈ 133 µM); MIC [7]: inactive

Which MIC [1] does the source give for O=C(c1ccc(F)cc1)C1C(c2ccc(Br)cc2)C(CO)NC12C(=O)Nc1ccccc12 (stereo not given) here?
Its MIC is 20 µg/mL (≈ 40.4 µM).

What about the MIC [2] of the same compound?
The MIC was 30 µg/mL (≈ 60.6 µM).

What about the Activity [3] of the same compound?
Its Activity is 87.4%.

With CCOC(=O)N1C/C(=C\c2ccc([N+](=O)[O-])cc2)C(=O)[C@@]2(C1)[C@H](c1ccc([N+](=O)[O-])cc1)[C@H]1CCCN1[C@]21C(=O)Nc2ccccc21 as the compound, how does the MIC [23] read?
Its MIC is 1.95 µg/mL (≈ 3.06 µM).

And the MIC [24]?
Its MIC is 0.06 µg/mL (≈ 0.0941 µM).

And the MIC [25]?
The MIC was “inactive”.

And the MIC [26]?
The MIC was 15.6 µg/mL (≈ 24.5 µM).

What about the MIC [27] of the same compound?
The MIC was 1.95 µg/mL (≈ 3.06 µM).

What about the MIC [28] of the same compound?
Its MIC is 0.49 µg/mL (≈ 0.768 µM).

What about the MIC [29] of the same compound?
The MIC was 0.12 µg/mL (≈ 0.188 µM).

And the MIC [30]?
The MIC was “inactive”.

What does the source list for Cc1cc2c(c(=O)o1)C1(C(=O)N(Cc3cn(Cc4ccc(Cl)cc4)nn3)c3ccc(Br)cc31)C(C#N)=C(N)O2 (stereo not given)?
MIC [8]: 6.63 µg/mL (≈ 10.9 µM); MIC [9]: 6.8 µg/mL (≈ 11.2 µM); MIC90 [10]: 2.75 µg/mL (≈ 4.54 µM); MIC90 [11]: 2.33 µg/mL (≈ 3.85 µM); MIC90 [12]: 5.27 µg/mL (≈ 8.7 µM); MIC90 [13]: 3.86 µg/mL (≈ 6.37 µM)
